This is an account of results in patent publication US9873693B2 (Sunesis Pharmaceuticals, Inc., priority 2006, dated 2018).

Molecules are shown by their SMILES. Read-outs that look alike come from different tables or passages of the source. A value given as a limit tells only on which side of the number the result lay.

The target in one test is dephosphorylated PDK1 (Homo sapiens (Human), UniProt O15530). In words: PDK1 kinase assay (coupled PDK1/AKT/FAM-crosstide, IMAP). Format: biochemical. Conditions: 25 nM un-phosphorylated PDK1, 24 μM ATP; read-out: Inhibition of dephospo-PDK1 in vitro IC50. Put shortly: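 The FAM-crosstide phosphorylation readout was IMAP polarization (ex 485/em 530 nm, 2 h binding), with 4-parameter fits of ΔmP data. The reaction ran 30 min at 25 °C with 24 μM ATP, and contained 25 nM phosphatase-treated PDK1 (aa 51–360) plus 30 nM unphosphorylated AKT2-PIFtide and 100 nM substrate. Buffer was 10 mM Tris pH 7.2, 10 mM MgCl2, 0.01% Triton X-100 and 1 mM DTT.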

The target of another test is full-length PDK1 (Homo sapiens (Human), UniProt O15530). In words: PDK phosphorylation of AKT and PKC-PIFtide in presence of PIP3 vesicles. Format: biochemical. The note with it: substrates PKC-PIFtide vs AKT2. On the procedure:
PDK phosphorylation of two different substrates, AKT and PKC-PIFtide, was measured in presence of pre-formed phophoinositol lipid PIP3 vesicles. 5 nM full-length PDK1 and was incubated with 100 nM substrate (unphosphorylated, full-length AKT2 or PKC-PIFtide, Invitrogen cat#P2925) in presence of test compound or DMSO at room temperature for 3 hours. Final buffer conditions were 10 mM Tris pH 7.5 buffer containing 10 mM MgCl2, 0.002% Triton X-100, 1 mM DTT, 0.2 mg/ml BSA, 10 uM PtdIns(3,4,5)P3 (Matreya, Inc), 100 uM DOPC:DOPS (Avanti Polar Lipids), and 0.5 uCi γ^33P-ATP (3000 Ci/mmol, Perkin-Elmer.)
Kinase reactions were stopped with addition of 50 uM non-labelled ATP and 5 mM EDTA, then acidified with 0.5% final concentration phosphoric acid. Labeled proteins were collected in Whatman P81 filter plates and washed with three 150 ul volumes of 0.5% phosphoric acid.
Lipid vesicles were pre-formed as follows. 15 mg (3 ampules) DOPC:DOPS was resuspended in 898 ul 10 mM HEPES pH 7.4. 1 mg PIP3 was resuspended in 1000 ul 10 mM HEPES pH 7.4. 964 ul of PIP3 was mixed with 800 ul DOPC:DOPS and diluted with 18.2 ml 10 mM HEPES pH 7.4 and mixed by vortexing. The lipid mixture was subjected to 5 cycles of freeze/thaw using liquid nitrogen and a 50° C. water bath. Aliquot of lipids were flash frozen and stored at −20° C.

Another test addresses phosphorylated PDK1 (Homo sapiens (Human), UniProt O15530). In words: PDK1 kinase assay (coupled PDK1/AKT/FAM-crosstide, IMAP). Conditions: 0.5 nM phosphorylated PDK1, 24 μM ATP; read-out: Inhibition of phospo-PDK1 in vitro IC50. Format: biochemical.
Another test has as its system phospho-akt (Thr308). In words: phospho-akt (Thr308) MSD ELISA in PC-3 cells. Format: cell-based. The note with it: Homo sapiens, PC-3, 2 h, PC-3 cells, 2 hours, no serum. Put shortly:
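Read-out is MSD electrochemiluminescence after lysate capture overnight at 4 degrees and 1 hr RT detection-antibody step. Before lysis, overnight-plated PC-3 cells received three-fold serial dilutions of inhibitor in serum-free medium, with DMSO-only high controls.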

The next test deals with Phospho-T308 Akt. In words: Phospho-T308 Akt detection using immunoblot (western blot) in PC-3 cells. Format: cell-based. Put shortly:
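PC-3 prostate cells, cultured overnight in F12K plus 10% FBS, were treated for 2 h at 37 °C in serum-free medium with compound A (1000× DMSO dilutions). Lysate protein was immunoblotted with anti-phospho-Akt Thr308. Bands were quantified by background-subtracted densitometry, giving EC50 by non-linear regression and percent decrease at 2 μM and 5 μM.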

The subject of test [1] is phospho-akt (thr308), phospho-PKC delta (thr505), phospho-PKC (thr538), phospho-PKC zeta (thr410). In words: Phospho-PKC detection using immunoblot in PC-3 cells. Format: cell-based. Conditions: FIG. 2; at 2 hours and 18 hours. As for the experimental part: The Phospho-PKC Detection was performed using immunoblot analysis as follows. The cell activity of test compounds, were assessed using immunoblot analysis for phospho-akt (thr308), phospho-PKC delta (thr505), phospho-PKC (thr538) and phospho-PKC zeta (thr410).
PC-3 prostate cells were plated in a 100 mm tissue culture dish in F12K media (Invitrogen, Carlsbad, Calif.) plus 10% FBS (Invitrogen) and placed in incubator overnight. The stocks of test compounds were a 50 mM solution in DMSO. For some test compounds a 5 mM solution was made in DMSO then directly diluted (1 μM and 5 μM final concentration) into fresh media with no serum. For other test compounds the 50 mM stock was directly diluted (10 μM and 30 μM final concentrations) into fresh media with no serum. For the control, DMSO was added to media with no serum at a final concentration of 0.1%. Cells were incubated with compound for 2 hrs or 18 hrs at 37° C. Cells were harvested and washed in PBS and subjected to centrifugation at 3,300 rpm for 5 minutes. The cell pellet was lysed in 150 μl Pierce (Rockford, Ill.) M-PER lysis buffer plus protease inhibitors and phosphatase inhibitors (Sigma, St. Louis, Mo.) for 30 minutes on ice followed by centrifugation at 13,000 rpm for 5 minutes. The protein content of the supernatant was assayed using DC Protein Assay (BioRad, Hercules, Calif.). […]

The mark [2] stands for this setting: read-out: Inhibition of P308 Akt in cells using MSD EC50.
Where [3] appears, read: read-out: Reduction of Cellular Levels of Akt p308 By MSD ELISA (EC50 μM).

dephosphorylated PDK1, sequence (O15530 51-360): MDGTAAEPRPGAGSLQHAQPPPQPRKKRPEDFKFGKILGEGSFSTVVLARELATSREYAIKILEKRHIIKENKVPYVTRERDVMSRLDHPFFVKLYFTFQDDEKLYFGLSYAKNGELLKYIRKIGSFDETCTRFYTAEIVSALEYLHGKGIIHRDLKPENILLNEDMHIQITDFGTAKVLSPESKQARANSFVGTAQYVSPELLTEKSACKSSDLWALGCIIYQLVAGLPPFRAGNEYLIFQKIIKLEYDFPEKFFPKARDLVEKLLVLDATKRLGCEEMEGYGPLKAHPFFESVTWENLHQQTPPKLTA
phosphorylated PDK1, sequence (O15530 51-360): as above
full-length PDK1, sequence (O15530 whole entry): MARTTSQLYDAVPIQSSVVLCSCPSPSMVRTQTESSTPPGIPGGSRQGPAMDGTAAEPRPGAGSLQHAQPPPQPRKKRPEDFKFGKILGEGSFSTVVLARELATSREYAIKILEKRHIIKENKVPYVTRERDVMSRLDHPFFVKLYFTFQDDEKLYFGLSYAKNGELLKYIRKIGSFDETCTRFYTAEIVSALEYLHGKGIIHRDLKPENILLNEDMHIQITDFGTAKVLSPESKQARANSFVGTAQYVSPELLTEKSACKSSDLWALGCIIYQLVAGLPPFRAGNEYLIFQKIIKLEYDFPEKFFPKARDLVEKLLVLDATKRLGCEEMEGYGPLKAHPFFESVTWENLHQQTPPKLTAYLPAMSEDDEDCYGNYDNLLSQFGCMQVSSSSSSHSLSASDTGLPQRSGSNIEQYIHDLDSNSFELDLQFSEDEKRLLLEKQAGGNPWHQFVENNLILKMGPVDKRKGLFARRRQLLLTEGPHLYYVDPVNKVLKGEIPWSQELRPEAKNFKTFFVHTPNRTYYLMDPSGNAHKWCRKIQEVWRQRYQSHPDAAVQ

For `COc1ccnc(NCCC#CCCNC(=O)c2cccn(Cc3cccc(Cl)c3)c2=O)n1` [Cpd 102], the values for the concentration for half-maximal inhibition (IC50) at dephosphorylated PDK1 and on phosphorylated PDK1 were less than 500 nM and 500 to 10000 nM, respectively. In addition, at full-length PDK1, the “Ratio of PIP3 IC50 with PKCtide to PIP3 IC50 with AKT” value (shortened to “Ratio of PIP3 IC50 with PKCtide”) worked out at 19.1.

With `O=C(NCc1ccc(-c2c[nH]c3ncccc23)s1)c1cccn(Cc2ccc(F)c(F)c2)c1=O` [Cpd 2], the half-inhibitory concentration (IC50) at dephosphorylated PDK1 and on phosphorylated PDK1 was less than 500 nM each time. Also, on full-length PDK1, the “Ratio of PIP3 IC50 with PKCtide” value worked out at 36.7. Also, the concentration giving a half-maximal response (EC50) in the test on phospho-akt (Thr308) (setting [2]) and in the test with phospho-akt (Thr308) (setting [3]) was 1 to 5 µM throughout.

Regarding `O=C(N[C@@H](COc1ccc2[nH]c(=O)[nH]c2c1)c1ccccc1)c1cccn(Cc2ccc(F)c(F)c2)c1=O` [Cpd 144], the “Reduction of Cellular Levels of Akt p308 By Western” value in the test with Phospho-T308 Akt (2 hour incubation, concentration not given in Table 2) is “bbb (inhibition of more than 75%)”. In addition, in the test on Phospho-T308 Akt (Homo sapiens, at 2 μM, read-out: Percent Inhibition of phospho-Akt (308) By Western), the inhibition at 2 µM is greater than 75%. The EC50 in the test with phospho-akt (Thr308) (setting [2]) and in the test with phospho-akt (Thr308) (setting [3]) was less than 1 µM each time. For the same compound, the “inhibition of PDK1 mediated phosphorylation of Akt relative to PKC isoforms” value in test [1] is reported as “selective inhibition of PDK1 mediated phosphorylation of Akt relative to PDK1 mediated phosphorylation of PKC isoforms”.

As for `COc1ccnc(NCCC#CCNC(=O)c2cccn(Cc3ccc(F)c(F)c3)c2=O)n1` [Cpd 109], the IC50 on dephosphorylated PDK1 and at phosphorylated PDK1 was less than 500 nM throughout. Moreover, the “Ratio of PIP3 IC50 with PKCtide” value on full-length PDK1 is given as 51.8.
